PMC12053052, “Comprehensive physicochemical, biophysical, and in vitro characterization of lung surfactant SP-A peptidomimetics” (Rsc Pharmaceutics, 2025)
“And” between values parts separate entries of the source, which are not always exact repeats. Identical values can stand only once. “Also recorded” adds a separate entry of the source. No end group written: not given here.

How the values were obtained:
[1] = not given; remark: listed apart in the source
[2] = In vitro solubility in pure solvents; assay type: physicochemical; conditions: excess solid, rotated 24 h at ambient room temperature, 0.2 μm filtered, HPLC-UV 220 nm, mean ± SD, N = 3; for solubility thermodynamic at 24 h: PBS, pH 7.4, aqueous buffer, thermodynamic from solid
Experimental: In vitro solubility measurements were conducted using conditions earlier reported.[13] Excess of peptide powder was added to known volume of pure solvent in a glass vial. The vial was allowed to rotate at ambient room temperature for 24 hours.[13] The test solution was filtered using 0.2 μm PTFE or PVDF membrane filters for organic and aqueous solvents respectively. The filtered solution was chemically analyzed by HPLC using conditions described in the HPLC section below.
(§1) High-performance liquid chromatography was used to quantify the peptides. The analysis was performed with a Shimadzu LC-2010AHT HPLC system (Kyoto, Japan), with autosampler fitted to a 20 μL sampling loop and dual wavelength UV-Vis detector and reverse phase C18 Phenomenex Prodigy™column (Torrance, CA) with 250 × 4.6 mm, 5 μm particle size. The mobile phase consisted of (A) 0.065% TFA in water and (B) 0.05% TFA in ACN at a flow rate of 1.0 mL min^−1. Analysis was performed using the following gradient elution method: 100% A to 100% B in 15 minutes, maintained at 100% B until 17.5 minutes. The percentage of A reached 100% in 19.5 minutes and maintained until 25 minutes. The column was maintained at 25 °C. The injection volume was 20 μL. The UV detector was set at 220 nm wavelength. The solvents used to dissolve 10-AA and 20-AA peptide analysis were PBS and pure water, respectively.

[3] = Octanol/water partition coefficient; assay type: physicochemical; conditions: shake-flask 1-octanol/water 50:50 v/v, 3 mg peptide in 3 mL, 37 °C, 24 h shaking + 24 h separation, HPLC-UV 220 nm, mean ± SD, N = 3
Experimental: Using similar conditions reported earlier,[14] octanol/water partition coefficient (P) measurements were conducted. A mass of 3 mg of peptide powder was added to 3 mL of 1-octanol (1.5 mL) and water (1.5 mL) to create a 50 : 50 v/v octanol : water ratio in a glass vial and allowed to shake in temperature-controlled water bath at 37 °C. After 24 hours, the shaker was stopped and the vial was undisturbed for 24 hours to allow the solvents to separate. An aliquot (20 μL) of water phase and octanol phase was injected into HPLC to quantify the peptide concentration in each phase.
as §1, with “The solvents used to dissolve 10-AA and 20-AA peptide analysis were PBS and pure water, respectively.” left out

[4] = tested on: NCI-H441 (human papillary lung adenocarcinoma cells); assay: In vitro cell viability, resazurin assay; assay type: cell-based; conditions: 0.1–1000 μM peptide, 72 h, relative to growth medium control, n = 6, ANOVA/Tukey p < 0.05
Source text: (§2) The cell viability of three different human pulmonary cell lines from different lung areas representing the conducting airways, the mid-lung and deep lung respiratory regions of the small airways. They are A549 (human alveolar epithelial lung cells), H358 (human bronchioalveolar epithelial cells) and NCI-H441 (human papillary lung adenocarcinoma cells), were studied using the Resazurin assay. Pulmonary cell lines A549 (ATCC® CCL-185™), H358 (ATCC® CRL-5807™) and NCI-H441 (ATCC® HTB-174™) were purchased from the American Type Culture Collection ATCC® (Manassas, VA). As previously reported,[16] A549 and H358 were grown in Dulbecco's modified eagle's medium (DMEM) Advanced 1× supplemented with 10% v/v fetal bovine serum (FBS), Pen-Strep (100 U mL^−1, 100 μg mL^−1), Fungizone® (0.5 μg mL^−1 amphotericin B, 0.41 μg mL^−1 sodium deoxycholate) and 2 mM L-glutamine obtained from Gibco® by Life Technologies (Thermo Fisher Scientific Inc., Waltham, MA). H441 cell line was grown in RPMI 1640 with L-glutamine Gibco® by Life Technologies (Thermo Fisher Scientific Inc., Waltham, MA).
(§3) The assay was conducted using similar previously reported conditions.[16] Briefly, in Nunc™ MicroWell™ 96-well optical-bottom plates with polymer base (ThermoScientific Waltham, MA) each cell line was seeded at a concentration of 5000 cells in 100 μL per well (six wells, n = 6) and allowed to attach for 48 hours. The cells were treated with 100 μL volume of different concentrations (0.1–1000 μM) of the peptides dissolved in the respective media. After 72 hours, the plate was treated with 20 μL of 10 μM resazurin solution. After 3–4 hours, the fluorescence intensity was read at 514 nm (excitation) and 590 nm (emission) wavelengths using the Synergy H1 Multi-Mode Reader (BioTek Instruments, Inc., Winooski, Vermont). The corresponding growth media was used as control for each cell line. Relative viability was calculated as a ratio of fluorescence intensity of the sample to the control. [drawing 1]

[5] = tested on: A549 (human alveolar epithelial lung cells); assay: In vitro cell viability, resazurin assay; assay type: cell-based; conditions: 0.1–1000 μM peptide, 72 h, relative to growth medium control, n = 6, ANOVA/Tukey p < 0.05
Source text: as §2, §3

[6] = tested on: H358 (human bronchioalveolar epithelial cells); assay: In vitro cell viability, resazurin assay; assay type: cell-based; conditions: 0.1–1000 μM peptide, 72 h, relative to growth medium control, n = 6, ANOVA/Tukey p < 0.05
Source text: as §2, §3

Substance | Enthalpy (ΔH) of melting [1] [J/g] | Solubility in MilliQ water ([2]; thermodynamic) [µg/mL] | Solubility in absolute ethanol ([2]; thermodynamic) [µg/mL] | Solubility in methanol ([2]; thermodynamic) [µg/mL] | solubility thermodynamic at 24 h [2] [µg/mL] | other results
H-KEQCVEMYTD-OH | 3.08 | – | – | – | – | Melting temperature (Tm), characteristic endothermic peak: 171 °C and 168 °C
H-PAGRGKEQCVEMYTDGQWND-OH | 1.08 | – | – | – | – | –
KEQCVEMYTD [SP-A 10-AA AC] | – | 420 ± 40 | 40 ± 10 | 10 ± 0.3 | – | Solubility in PBS (pH 7.4) ([2]; thermodynamic): 1.16 ± 0.01 mg mL^−1; logP ([3]; read-out: Log P (octanol/water partition coefficient)): -1.07 ± 0.2
KEQCVEMYTD [SP-A 10-AA PS] | – | 12200 ± 50 | 2060 ± 30 | 4250 ± 10 | 1810 ± 20 | Log P (octanol/water partition coefficient) [3]: −1.79
PAGRGKEQCVEMYTDGQWND [SP-A 20-AA AC] | – | – | 20 ± 20 | 20 ± 5 | – | Relative cell viability, H441 [4]: reduction in viability at higher concentrations; also recorded: significantly reduced cell viability at concentrations above 100 μM; Relative cell viability, A549 [5]: significantly reduced cell viability at concentrations above 100 μM
PAGRGKEQCVEMYTDGQWND [SP-A 20-AA PS] | – | – | 110 ± 50 | 1450 ± 20 | 470 ± 4 | Relative cell viability, H358 [6]: decreased viability at higher concentrations; also recorded: statistically significant decrease in viability only with 20-AA PS at 1000 μM
